Here are results for 2 compounds from paper PMC12169613 (Journal of Medicinal Chemistry, 2025).

The target of test [1] is human Y1 receptor (hY1R) (Homo sapiens, UniProt P25929).
Test [2] has as its target Nluc-GPR1 (Homo sapiens, UniProt P46091). Put plainly: cell-based. Here is the method:
After overnight incubation at standard conditions, 75,000 cells/well were seeded into a black, solid 96-well plate using phenol red-free culture medium. […] (positive control) was added to the cells. […] The readout was performed directly in a microplate reader (Tecan Spark) with a filter for fluorescence (λem = 550–700 nm) and bioluminescence (λem = 430–470 nm). Data studies were performed as mentioned for arr-3 BRET.

Test [3] concerns CMKLR1. As to conditions: cited from earlier work.
Test [4] has as its target CMKLR1 (Homo sapiens, UniProt Q99788). The text has this:
Data are presented as mean±SEM.
(2 pictures or pasted objects on this page, not shown here)

Read-outs that look alike come from different tables or passages of the source.

Chain of Nluc-GPR1 (P46091 whole entry): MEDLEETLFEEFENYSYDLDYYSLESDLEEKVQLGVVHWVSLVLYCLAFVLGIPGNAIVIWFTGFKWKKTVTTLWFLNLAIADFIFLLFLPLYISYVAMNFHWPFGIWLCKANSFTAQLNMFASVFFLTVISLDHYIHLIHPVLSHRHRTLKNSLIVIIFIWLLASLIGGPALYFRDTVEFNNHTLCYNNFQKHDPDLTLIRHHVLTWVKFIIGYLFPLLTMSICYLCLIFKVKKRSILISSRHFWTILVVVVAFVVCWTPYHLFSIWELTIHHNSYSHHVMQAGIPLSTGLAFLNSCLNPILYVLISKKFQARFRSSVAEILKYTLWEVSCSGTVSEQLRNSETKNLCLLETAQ
Chain of CMKLR1 (Homo sapiens, UniProt Q99788) (Q99788 3-373): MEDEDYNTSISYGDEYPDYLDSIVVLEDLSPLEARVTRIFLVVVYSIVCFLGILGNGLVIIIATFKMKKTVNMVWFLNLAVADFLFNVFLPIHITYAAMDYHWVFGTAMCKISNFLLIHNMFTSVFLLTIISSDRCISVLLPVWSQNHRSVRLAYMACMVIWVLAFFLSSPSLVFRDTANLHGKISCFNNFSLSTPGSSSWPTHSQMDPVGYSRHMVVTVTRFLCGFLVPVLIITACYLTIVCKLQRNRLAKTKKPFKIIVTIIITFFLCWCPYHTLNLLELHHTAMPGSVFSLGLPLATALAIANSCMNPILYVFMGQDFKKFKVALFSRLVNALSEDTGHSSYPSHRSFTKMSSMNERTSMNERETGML
Chain of human Y1 receptor (hY1R) (P25929 whole entry): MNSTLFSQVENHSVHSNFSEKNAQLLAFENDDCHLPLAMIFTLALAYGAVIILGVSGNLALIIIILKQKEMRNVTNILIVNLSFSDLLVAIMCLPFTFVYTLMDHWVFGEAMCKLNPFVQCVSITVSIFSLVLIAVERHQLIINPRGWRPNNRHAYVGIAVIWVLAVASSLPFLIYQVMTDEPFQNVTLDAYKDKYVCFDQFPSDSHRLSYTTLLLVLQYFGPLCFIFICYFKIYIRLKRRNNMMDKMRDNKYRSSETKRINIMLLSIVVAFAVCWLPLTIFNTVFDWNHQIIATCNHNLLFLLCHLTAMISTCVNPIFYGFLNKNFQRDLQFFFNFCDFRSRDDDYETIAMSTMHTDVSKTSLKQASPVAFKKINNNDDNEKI

The term Ki denotes the dissociation constant of the complex between target and ligand, obtained from inhibition or displacement. Consider `COc1ccc(C)cc1NC(=O)CSc1nc(=O)c(S(=O)(=O)c2ccc(C)c(Cl)c2)c[nH]1` [Compound 1, 2-{[5-(3-Chloro-4-methylbenzenesulfonyl)-4-oxo-1,4-dihydropyrimidin-2-yl]sulfanyl}-N-(2-methoxy-5-methyl-phenyl)acetamide], for which the “effect at hY1R (in words)” value in test [1] was “no effect”. Also, the results for the Ki in test [2] and in test [2] (read-out: Nluc-GPR1 Ki) were over 1000 nM and 1320 nM, respectively.

The term IC50 denotes the concentration that inhibits the measured activity by half. On to `C[N+](C)(C)CCC(=O)c1cccc2ccccc12.[I-]` [α-NETA, 2-(α-naphthoyl)-ethyl-trimethylammonium iodide], for which the IC50 in test [3] was 380 nM. Besides, the “influence on CMKLR1 G protein signaling (in words)” value in test [4] is “No influence”.
